From paper PMC2934701 (The Journal of Biological Chemistry, 2010)
Numbering of substitutions follows the chain as printed.

Experiments:
hTAS2R16 (ssr3-hTAS2R16) [1] = target: T1, hTAS2R16 (ssr3-hTAS2R16) (Homo sapiens, UniProt Q9NYV7); assay: Fluo-4 calcium assay, HEK293T + Galpha16gust44; assay type: cell-based
T1 sequence (Q9NYV7 1-291): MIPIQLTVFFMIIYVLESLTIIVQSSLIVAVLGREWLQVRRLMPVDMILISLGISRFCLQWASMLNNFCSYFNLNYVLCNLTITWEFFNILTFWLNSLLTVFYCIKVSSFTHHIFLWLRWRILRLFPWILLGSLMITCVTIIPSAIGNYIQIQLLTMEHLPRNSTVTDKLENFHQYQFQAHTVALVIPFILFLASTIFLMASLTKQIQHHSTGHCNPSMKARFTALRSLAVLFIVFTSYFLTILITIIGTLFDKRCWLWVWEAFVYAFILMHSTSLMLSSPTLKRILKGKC

hTAS2R16 (ssr3-hTAS2R16) [2] = target: T2, hTAS2R16 (ssr3-hTAS2R16) (Homo sapiens, UniProt Q9NYV7, E86D); assay: Fluo-4 calcium assay, HEK293T + Galpha16gust44; assay type: cell-based
T2 sequence (Q9NYV7 1-291 E86D): T1 sequence (Q9NYV7 1-291) with E86D

EC50 (hTAS2R16 (ssr3-hTAS2R16) [1]): 1.34 mM
EC50 (hTAS2R16 (ssr3-hTAS2R16) [2]): 10.6 mM
SMILES: OC[C@H]1O[C@@H](Oc2ccc(O)cc2)[C@H](O)[C@@H](O)[C@@H]1O [arbutin]
